# According to patent publication US20200181284A1, “EPIGENETIC INHIBITORS FOR SENSITIZING HEMATOLOGIC OR OTHER MALIGNANCIES TO GLUCOCORTICOID THERAPY” (UNIVERSITY OF SOUTHERN CALIFORNIA, priority 2017, published 2020):
# Assays:
# SUP-B15 [1] = assay: Cell death assay (PrestoBlue viability, 3 days); type: cell-based, human; settings: SUP-B15, highest concentration (10 μM), 3 days
# Experimental: (§1) Cell death assays: We used PrestoBlue to measure cell viability in response to knockdown and treatment. Cells were grown to a density of 250,000 cell/ml, then dispensed into black tissue culture plates and grown overnight. In the morning, cells were treated. For both CAL-101 (Selleckchem, S2226) and dex (Sigma, D4902), viability was measured after 3 days. As PrestoBlue measures NADPH/NADH metabolites, the balance of which can be affected by GC treatment, we performed frequent cell count spot checks manually by trypan blue exclusion to ensure that fluorescence measurements reflected true viability. Both CAL-101 and dex were dissolved in ethanol, and used 1:1000 in cell culture for a final ethanol concentration of 0.1%. Combination treatments were performed in triplicate in 384 well plates with 20 dilutions of dex from 10^M to 0 and 9 dilutions of CAL-101 from 10^M to 0. Viabilities and EC50 were then calculated using four parameter non-least squares fitting using Prism 6. qPCR of Causative genes: Cells were grown to a density of 1 million cells/ml, then aliquoted into 6 well plates in the afternoon, then grown overnight. Cells were then treated with the drugs and times indicated, at which point cells were spun down at 400 g for 5 minutes, the medium aspirated, and the pellet resuspended in 0.7 ml Qiazol/Trizol and frozen. RNA was then isolated using the miRNAeasy protocol. cDNA was then prepared form 1^g of RNA suing SuperScript3, and qPCR performed using BioRad iQ mix. Primers for qPCR were designed using the IDT web site, then tested for each gene. […] Expression levels for each gene were corrected for primer efficiency, normalized to RPL19, then compared to controls (Pfaffl, 2001).
# The optimal signal was determined by incubating cells with 1 ^M dex for 0, 4, 8, and 24 hours. […] Cells were incubated with dex alone, CAL-101 alone, and in combination for 24 hours, then harvested and qPCR performed as described above. Each experiment was performed at least three times, and analyzed using GraphPad (Prism 6). Significant differences between drug and control and between either drug alone and combinations was determined by two sided Student's t-test (P-Value<0.05).
# Three cell lines (NALM6, SUP-B15, and RCH-ACV), one resistant patient sample (HM3101), and one relapsed Phlike xenograft (ALL121) were incubated with increasing concentrations of dex or CAL-101 for 3 days. Cell viability was measured by PrestoBlue staining. Curves, values, and errors are based on at least 3 replicates. Bar plot of the EC50, calculated by four-parameter least-squares fitting (Both plotted and calculated in GraphPad Prism).
# [2] = tested on: resistant patient sample HM3101; assay: Cell death assay (PrestoBlue viability, 3 days); type: cell-based, human; settings: HM3101, highest concentration (10 μM)
# Experimental: Cell death assays: We used PrestoBlue to measure cell viability in response to knockdown and treatment. Cells were grown to a density of 250,000 cell/ml, then dispensed into black tissue culture plates and grown overnight. In the morning, cells were treated. For both CAL-101 (Selleckchem, S2226) and dex (Sigma, D4902), viability was measured after 3 days. As PrestoBlue measures NADPH/NADH metabolites, the balance of which can be affected by GC treatment, we performed frequent cell count spot checks manually by trypan blue exclusion to ensure that fluorescence measurements reflected true viability. Both CAL-101 and dex were dissolved in ethanol, and used 1:1000 in cell culture for a final ethanol concentration of 0.1%. […] Viabilities and EC50 were then calculated using four parameter non-least squares fitting using Prism 6. qPCR of Causative genes: Cells were grown to a density of 1 million cells/ml, then aliquoted into 6 well plates in the afternoon, then grown overnight. […]
# The results as shown in FIGS. 14A-14B generally highlight the EC50 of BCP-ALL specimens for dexamethasone and CAL-101. […] Cell viability was measured by PrestoBlue staining. […] Bar plot of the EC50, calculated by four-parameter least-squares fitting (Both plotted and calculated in GraphPad Prism). […]
# [3] = tested on: five B-ALL samples (NALM-6, SUP-B15, RCH-ACV, HM3101, ALL121); assay: Combination of dex and CAL-101: isoboles and combination index (Calcusyn); type: cell-based, human; settings: lowest value over the samples; super additive <1, Calcusyn
# Experimental: Cell death assays: We used PrestoBlue to measure cell viability in response to knockdown and treatment. Cells were grown to a density of 250,000 cell/ml, then dispensed into black tissue culture plates and grown overnight. In the morning, cells were treated. For both CAL-101 (Selleckchem, S2226) and dex (Sigma, D4902), viability was measured after 3 days. As PrestoBlue measures NADPH/NADH metabolites, the balance of which can be affected by GC treatment, we performed frequent cell count spot checks manually by trypan blue exclusion to ensure that fluorescence measurements reflected true viability. Both CAL-101 and dex were dissolved in ethanol, and used 1:1000 in cell culture for a final ethanol concentration of 0.1%. Combination treatments were performed in triplicate in 384 well plates with 20 dilutions of dex from 10^M to 0 and 9 dilutions of CAL-101 from 10^M to 0. Viabilities and EC50 were then calculated using four parameter non-least squares fitting using Prism 6. qPCR of Causative genes: Cells were grown to a density of 1 million cells/ml, then aliquoted into 6 well plates in the afternoon, then grown overnight. Cells were then treated with the drugs and times indicated, at which point cells were spun down at 400 g for 5 minutes, the medium aspirated, and the pellet resuspended in 0.7 ml Qiazol/Trizol and frozen. […]
# [4] = tested on: relapsed B-ALL cells (ALL121); assay: PDX model of ALL: NSG mice engrafted with ALL121, spleen size and human ALL cells in spleen; type: in vivo; settings: idela monotherapy 50 mg/kg daily, two weeks
# Description: As proof of concept, we tested this combination in a PDX model of ALL.
# NALM-6 = assay: qPCR of effector genes, dex and CAL-101 alone and combined, 24 hours; type: cell-based, human; settings: NALM-6, CAL-101 alone
# Experimental: as §1
# (§2) The optimal signal was determined by incubating cells with 1 ^M dex for 0, 4, 8, and 24 hours. […] Each experiment was performed at least three times, and analyzed using GraphPad (Prism 6). Significant differences between drug and control and between either drug alone and combinations was determined by two sided Student's t-test (P-Value<0.05).
# RCH-ACV = assay: as above; type: cell-based, human; settings: addition of CAL-101 to dex
# Experimental: as §1, §2
# SUP-B15 [5] = assay: as above; type: cell-based, human; settings: SUP-B15, addition of CAL-101 to dex
# Experimental: as §1, §2
structure (smiles),measurement,setting,value
CC[C@H](Nc1ncnc2[nH]cnc12)c1nc2cccc(F)c2c(=O)n1-c1ccccc1 [CAL-101],death caused by CAL-101,SUP-B15 [1],< 50%
same,death caused by CAL-101,[2],< 50%
same,combination index of dex and CAL-101,[3],≥ 0.13
same,effect on spleens (spleen size),[4],no effect
same,TXNIP regulation,NALM-6,no effect
same,PIK3CD expression,RCH-ACV,no significant effect
same,PIK3CD expression,SUP-B15 [5],no significant effect
